Results reported in the NIST ThermoML archive (doi:10.1021/je800234h).
Numbers after ± are expanded uncertainties.

Test: mn = molality of the nth substance listed, in mol/kg
Conditions: Liquid, Vibrating tube method

[Ca+2].[Cl-].[Cl-] [calcium chloride] + CCO
mass density [kg/m3]
Conditions | 323.15 K | 348.15 K
270 kPa, m1 = 1.266 | – | 833.32 ± 0.35
310 kPa, m1 = 1.55 | – | 852.87 ± 0.36
580 kPa, m1 = 0.9896 | – | 814.32 ± 0.35
620 kPa, m1 = 0.4379 | – | 774.92 ± 0.34
750 kPa, m1 = 0.09327 | – | 748.39 ± 0.34
750 kPa, m1 = 0.6899 | – | 792.97 ± 0.34
890 kPa, m1 = 0.1743 | – | 755.18 ± 0.34
5060 kPa, m1 = 0.9896 | – | 819.3 ± 0.36
5060 kPa, m1 = 1.266 | – | 837.99 ± 0.36
5080 kPa, m1 = 0.6899 | – | 797.87 ± 0.36
5090 kPa, m1 = 0.1743 | – | 760.16 ± 0.35
5130 kPa, m1 = 0.4379 | – | 780.06 ± 0.35
5210 kPa, m1 = 1.55 | – | 858.12 ± 0.37
5620 kPa, m1 = 0.09327 | – | 754.25 ± 0.36
10060 kPa, m1 = 1.266 | 865.4 ± 0.38 | –
10160 kPa, m1 = 1.55 | – | 863.08 ± 0.38
10180 kPa, m1 = 0.6899 | 825.76 ± 0.37 | –
10240 kPa, m1 = 0.4379 | – | 785.57 ± 0.37
10310 kPa, m1 = 0.9896 | – | 824.81 ± 0.37
10340 kPa, m1 = 0.09327 | 781.44 ± 0.37 | –
10410 kPa, m1 = 0.6899 | – | 803.58 ± 0.37
10450 kPa, m1 = 1.266 | – | 843.06 ± 0.37
10480 kPa, m1 = 0.1743 | 787.98 ± 0.37 | 766.21 ± 0.37
10740 kPa, m1 = 1.55 | 885.92 ± 0.38 | –
10820 kPa, m1 = 0.09327 | – | 760.15 ± 0.38
10890 kPa, m1 = 0.9896 | 847.78 ± 0.38 | –
14890 kPa, m1 = 0.6899 | – | 808.11 ± 0.39
15020 kPa, m1 = 1.55 | 889.39 ± 0.39 | –
15060 kPa, m1 = 0.4379 | 811.96 ± 0.39 | –
15210 kPa, m1 = 0.9896 | – | 829.63 ± 0.39
15310 kPa, m1 = 0.4379 | – | 790.73 ± 0.39
15370 kPa, m1 = 0.6899 | 830.3 ± 0.39 | –
15380 kPa, m1 = 0.09327 | – | 765.02 ± 0.4
15410 kPa, m1 = 1.266 | 869.66 ± 0.38 | –
15420 kPa, m1 = 0.9896 | 851.64 ± 0.38 | –
15620 kPa, m1 = 0.1743 | 792.67 ± 0.39 | –
15680 kPa, m1 = 1.55 | – | 868.22 ± 0.39
15760 kPa, m1 = 0.1743 | – | 771.77 ± 0.4
15780 kPa, m1 = 0.09327 | 786.43 ± 0.4 | –
15840 kPa, m1 = 1.266 | – | 847.95 ± 0.39
19980 kPa, m1 = 1.266 | 873.2 ± 0.39 | 851.59 ± 0.4
20040 kPa, m1 = 0.4379 | 816.13 ± 0.4 | –
20060 kPa, m1 = 0.6899 | – | 813.01 ± 0.4
20060 kPa, m1 = 0.9896 | 855.4 ± 0.4 | –
20420 kPa, m1 = 1.55 | 893.5 ± 0.39 | –
20430 kPa, m1 = 0.09327 | – | 770.09 ± 0.42
20640 kPa, m1 = 0.1743 | 796.99 ± 0.41 | –
20640 kPa, m1 = 0.6899 | 834.66 ± 0.4 | –
20980 kPa, m1 = 0.09327 | 790.93 ± 0.42 | –
24860 kPa, m1 = 1.266 | 876.87 ± 0.4 | –
24870 kPa, m1 = 0.4379 | 819.96 ± 0.42 | –
25080 kPa, m1 = 0.9896 | 859.23 ± 0.41 | –
25310 kPa, m1 = 1.55 | 896.97 ± 0.4 | –
25390 kPa, m1 = 0.6899 | 838.36 ± 0.41 | –
25680 kPa, m1 = 0.09327 | 794.77 ± 0.44 | –
25870 kPa, m1 = 0.1743 | 801.22 ± 0.43 | –
30020 kPa, m1 = 0.4379 | 823.82 ± 0.44 | –
30070 kPa, m1 = 1.266 | 880.67 ± 0.41 | –
30140 kPa, m1 = 1.55 | 900.16 ± 0.41 | –
30180 kPa, m1 = 0.6899 | 841.89 ± 0.43 | –
30380 kPa, m1 = 0.1743 | 804.64 ± 0.45 | –
30390 kPa, m1 = 0.09327 | 798.4 ± 0.46 | –
30450 kPa, m1 = 0.9896 | 863.05 ± 0.42 | –
35150 kPa, m1 = 0.4379 | 827.42 ± 0.46 | –
35160 kPa, m1 = 1.266 | 884.27 ± 0.42 | –
35210 kPa, m1 = 0.9896 | 866.21 ± 0.43 | –
35620 kPa, m1 = 1.55 | 903.49 ± 0.41 | –
35760 kPa, m1 = 0.6899 | 845.73 ± 0.45 | –
35870 kPa, m1 = 0.09327 | 802.35 ± 0.48 | –
35920 kPa, m1 = 0.1743 | 808.56 ± 0.48 | –
39760 kPa, m1 = 0.4379 | 830.46 ± 0.47 | –
39860 kPa, m1 = 0.09327 | 805.04 ± 0.5 | –
39870 kPa, m1 = 1.266 | 887.49 ± 0.43 | –
39940 kPa, m1 = 0.1743 | 811.21 ± 0.49 | –
39940 kPa, m1 = 0.6899 | 848.42 ± 0.46 | –
39960 kPa, m1 = 0.9896 | 869.15 ± 0.44 | –
39980 kPa, m1 = 1.55 | 905.92 ± 0.42 | –
